Drawing on BindingDB's records for doi:10.1021/cb300671s (National Cancer Institute-Bethesda, 2013), this text covers Kd for three compounds.

Assay [1] deals with Protein kinase C alpha type (Homo sapiens, UniProt P17252).
The target of assay [2] is Protein kinase C beta type (Homo sapiens, UniProt P05771).
Assay [3] concerns the target T1, Protein kinase C epsilon type (Homo sapiens, UniProt Q02156).
T1 sequence (Q02156 whole entry): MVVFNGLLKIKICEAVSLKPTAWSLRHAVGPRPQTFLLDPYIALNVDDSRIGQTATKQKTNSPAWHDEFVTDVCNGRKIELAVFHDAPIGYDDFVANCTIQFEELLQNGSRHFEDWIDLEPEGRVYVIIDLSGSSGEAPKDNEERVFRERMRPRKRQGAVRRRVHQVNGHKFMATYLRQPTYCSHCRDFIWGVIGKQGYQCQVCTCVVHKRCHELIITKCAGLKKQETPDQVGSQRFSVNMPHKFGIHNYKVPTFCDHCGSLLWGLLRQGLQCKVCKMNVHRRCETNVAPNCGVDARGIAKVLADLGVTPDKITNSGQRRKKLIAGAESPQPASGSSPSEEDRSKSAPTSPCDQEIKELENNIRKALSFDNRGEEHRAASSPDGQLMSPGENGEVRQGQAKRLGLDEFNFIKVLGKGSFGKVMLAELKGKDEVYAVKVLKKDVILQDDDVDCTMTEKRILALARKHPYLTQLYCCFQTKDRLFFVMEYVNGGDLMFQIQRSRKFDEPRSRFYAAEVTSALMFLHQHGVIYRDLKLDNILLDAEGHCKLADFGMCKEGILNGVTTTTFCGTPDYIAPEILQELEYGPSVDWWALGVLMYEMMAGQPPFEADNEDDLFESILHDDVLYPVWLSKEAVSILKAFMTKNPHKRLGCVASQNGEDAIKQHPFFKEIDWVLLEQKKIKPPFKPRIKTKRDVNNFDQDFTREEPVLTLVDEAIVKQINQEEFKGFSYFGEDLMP

The next assay addresses Protein kinase C (Mus musculus, UniProt Q4VA93).
The target of assay [4] is Protein kinase C delta type (Homo sapiens, UniProt Q05655).
Protein kinase C delta type, sequence (Q05655 whole entry): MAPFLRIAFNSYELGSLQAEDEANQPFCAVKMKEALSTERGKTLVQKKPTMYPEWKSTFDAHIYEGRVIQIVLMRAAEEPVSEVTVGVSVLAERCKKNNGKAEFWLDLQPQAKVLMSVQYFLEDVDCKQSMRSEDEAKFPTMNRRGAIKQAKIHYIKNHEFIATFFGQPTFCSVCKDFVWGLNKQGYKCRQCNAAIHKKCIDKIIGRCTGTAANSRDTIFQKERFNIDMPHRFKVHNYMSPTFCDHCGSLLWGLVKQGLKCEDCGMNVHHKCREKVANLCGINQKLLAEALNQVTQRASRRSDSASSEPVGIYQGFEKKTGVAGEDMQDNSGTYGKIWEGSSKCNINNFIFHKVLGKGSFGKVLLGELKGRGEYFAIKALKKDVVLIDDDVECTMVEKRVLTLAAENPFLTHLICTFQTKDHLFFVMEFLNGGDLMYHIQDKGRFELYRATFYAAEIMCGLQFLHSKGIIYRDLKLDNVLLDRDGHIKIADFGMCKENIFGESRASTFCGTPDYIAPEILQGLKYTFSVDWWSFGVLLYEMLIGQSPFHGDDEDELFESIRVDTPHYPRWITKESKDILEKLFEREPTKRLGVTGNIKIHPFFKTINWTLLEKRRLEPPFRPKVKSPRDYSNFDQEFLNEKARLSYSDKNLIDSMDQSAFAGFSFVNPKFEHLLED

Protein kinase C beta type, sequence (P05771 whole entry): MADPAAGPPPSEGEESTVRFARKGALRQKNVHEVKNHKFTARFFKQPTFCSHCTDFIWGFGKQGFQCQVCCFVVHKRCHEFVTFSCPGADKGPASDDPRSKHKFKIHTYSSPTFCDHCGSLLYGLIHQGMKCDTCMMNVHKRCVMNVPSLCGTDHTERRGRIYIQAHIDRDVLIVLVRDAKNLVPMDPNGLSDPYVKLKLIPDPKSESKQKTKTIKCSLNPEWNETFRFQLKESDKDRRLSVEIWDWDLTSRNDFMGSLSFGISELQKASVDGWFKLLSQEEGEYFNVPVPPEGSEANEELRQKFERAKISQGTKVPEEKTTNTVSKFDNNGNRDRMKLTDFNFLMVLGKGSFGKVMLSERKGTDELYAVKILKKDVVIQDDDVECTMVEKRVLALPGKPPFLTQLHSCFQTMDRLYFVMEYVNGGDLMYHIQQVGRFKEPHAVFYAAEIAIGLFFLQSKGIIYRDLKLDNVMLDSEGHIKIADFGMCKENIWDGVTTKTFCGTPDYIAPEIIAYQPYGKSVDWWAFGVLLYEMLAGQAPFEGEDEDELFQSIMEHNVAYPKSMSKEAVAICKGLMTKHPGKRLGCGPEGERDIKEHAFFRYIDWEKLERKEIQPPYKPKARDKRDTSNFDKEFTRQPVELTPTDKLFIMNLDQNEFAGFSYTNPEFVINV

One may read the Kd as the free concentration of one partner at which half of the binding sites on the other are occupied at equilibrium, for simple one-to-one binding. The low end stands for higher affinity, the high end for lower affinity. For the compound `CCC/C=C/C=C/C(=O)O[C@H]1/C(=C/C(=O)OC)C[C@H]2C[C@H]([C@@H](C)O)OC(=O)C[C@H](O)C[C@@H]3C[C@H](OC(C)=O)C(C)(C)[C@](O)(C[C@@H]4C/C(=C/C(=O)OC)C[C@H](/C=C/C(C)(C)[C@]1(O)O2)O4)O3`, the Kd in assay [1] was found to be 0.73 nM; in assay [2], 0.42 nM; in assay [3], 0.24 nM; at Protein kinase C, 0.48 nM.
`CCCC(=O)O[C@@H]1[C@@H](C)[C@@]2(O)[C@@H](C=C(CO)C[C@@]3(O)C(=O)C(C)=C[C@@H]23)[C@H]2C(C)(C)[C@]12OC(=O)CCC` [Butyric acid (1aS,1bS,4aS,7aS,8R,9S,9aR)-9-butyryloxy-4a,7b-dihydroxy-3-((R)-hydroxymethyl)-1,1,6,8-tetramethyl-5-oxo-1,1a,1b,4,4a,5,7a,7b,8,9-decahydro-cyclopropa[3,4]benzo[1,2-e]azulen-9a-yl ester] gave an equilibrium dissociation constant (Kd) at Protein kinase C of 0.3 nM.
Turning to `COC(=O)/C=C1/C[C@H]2C[C@]3(O)O[C@H](C[C@@H](O)CC(=O)O[C@@H]([C@@H](C)O)C[C@@H]4C/C(=C\C(=O)OC)[C@H](OC(C)=O)[C@@](O)(O4)C(C)(C)/C=C/[C@@H](C1)O2)C[C@H](OC(C)=O)C3(C)C` [Bryostatin], the equilibrium dissociation constant (Kd) in assay [1] amounted to 0.44 nM; in assay [2] it was 0.32 nM; in assay [4] it was 0.21 nM; in assay [3], 0.16 nM; on Protein kinase C it was 0.26 nM.
